In brackets after ≈: the same amount, converted by molar mass. Counter-ions that a name gives are not always drawn. Like-named read-outs stand apart in the source and are kept apart here. Each block holds one molecule with its values, some of them ahead of it.
Columns and labels:
[1] = tested on: MRSA; test: MIC, 96-well CAMHB, 10^5 to 10^2 CFU/mL in 24 hours; format: cell-based, Staphylococcus aureus; conditions: Staphylococcus aureus, MRSA, read-out: MIC (MRSA)
Procedure, shortened: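 Compound exposure was 24 h at 37 °C in CAMHB with an inoculum of ~5×10^5 CFU/mL from a 0.5 McFarland; eight replicates per concentration.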

[2] = tested on: P. aeruginosa; test: as above; format: cell-based, Pseudomonas aeruginosa; conditions: Pseudomonas aeruginosa
Procedure, shortened: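 Broth microdilution in CAMHB with about 5×10^5 CFU/mL inoculum, incubated 24 h at 37 °C with graded polyamine compound concentrations. Surviving CFU/mL determined by plating each well on TSA for 24 h at 37 °C; n=8 per concentration.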

[3] = tested on: MRSA; test: MIC against MRSA (as defined by CLSI); format: cell-based; conditions: Staphylococcus aureus, FIG. 25
Method: To determine the MIC of the polyamine chains alone and the synthesized compounds against MRSA and P. aeruginosa ATCC 27853, a modified protocol from the Clinical and Laboratory Standards Institute (CLSI) guideline M26-A was used. […] All data was collected using cation adjusted MHB for standardization.
As mentioned, MRSA and P. aeruginosa ATCC 27853 were grown on Columbia blood agar plates prior to experimentation. From the blood agar plates, a 0.5 McFarland standard was made of each isolate. This equated to approximately 5×10^7 cells/mL for the MRSA isolate and approximately 3×10^7 cells/mL for the P. aeruginosa ATCC 27853 isolate. Of the 0.5 McFarland stock solution, 50 μL were added to MHB. […] All tests were performed such that a final volume of 5 mL of MHB were obtained. This provided a final bacterial concentration of approximately 5×10^5 cells/mL.
Each sample was incubated in glass test tubes at 37° C. for 24 hours, then plated in duplicate on tryptic soy agar (TSA) using a 10-fold dilution series. TSA plates were further incubated 24 hours at 37° C. The number of colony forming units (CFU) that grew were counted in order to calculate the number of bacteria that were present per mL in the original MHB solution.

[4] = tested on: human blood; test: Hemolysis test with diluted human blood (ISO 10993-4); format: cell-based
Description: Procedure: The PBS used in testing was calcium and magnesium free. The method has been validated using human blood from one donor. This is in compliance with ISO 10993-4 which states due to differences in blood activity, human blood should be used where possible. Furthermore, pooling unmatched human blood from multiple donors may cause red blood cell agglutination which in turn could cause hemolysis; this supports the use of a single donor.
The blood was drawn using vacutainers containing 0.1 M sodium citrate at a ratio of 9:1 (3.2% anticoagulant to blood). The blood in this test was used within four hours of blood draw. The collected blood was refrigerated until testing was performed.
A hemoglobin standard was diluted with Drabkin's reagent to give solutions at concentrations of 0.80, 0.60, 0.40, 0.30, 0.20, 0.10, 0.02, and 0.01 mg/ml. These solutions were allowed to stand at room temperature for a minimum of five minutes. The absorbance was read on a spectrophotometer at 540 nanometers (nm). A standard curve was determined with the absorbance values and the standard concentrations of hemoglobin.
Human blood was centrifuged at 700-800×g for 15 minutes. A 1 mL aliquot of the plasma was added into 1 mL of Drabkin's reagent, and placed at room temperature for a minimum of 15 minutes. The absorbance was read on a spectrophotometer at 540 nm. The hemoglobin concentration was determined from the standard curve and then multiplied by a factor of 2 to obtain the total plasma free hemoglobin. The plasma free hemoglobin was less than 2 mg/mL (actual value 0.221 mg/mL). A 20 μL aliquot of blood was added to 5 mL of Drabkin's reagent in duplicate and allowed to stand at room temperature for a minimum of 15 minutes. The absorbance was read on a spectrophotometer at 540 nm then multiplied by 251 to account for the dilution.
Based on the plasma hemoglobin and the blood absorbance against Drabkin's reagent, the blood was diluted out to 10±1 mg/mL with PBS. To verify the blood dilution, a 300 μL aliquot of this blood was added to 4.5 mL of Drabkin's reagent in triplicate and allowed to stand at room temperature for a minimum of 15 minutes. The absorbance was read on a spectrophotometer at 540 nm then multiplied by 16 to account for the dilution.
Glass test tubes were labeled appropriately. Both samples were prepared the same way. The samples were allowed to thaw prior to testing. To each test tube, 7 mL of the test article and 1 mL of the diluted blood were added. The controls consisted of the appropriate amount of control material, 7 mL of PBS and 1 mL of blood. Three tubes were prepared for each test article and control. The tubes were incubated at 37±2° C. for 3 hours±5 minutes. Tubes were gently inverted twice at 30 minute intervals throughout the incubation period. A non-hemolytic negative control, a hemolytic positive control and a PBS blank were included.
After incubation, test articles were centrifuged at 700-800×g for 15 minutes and 1 mL of the supernatant fluid was combined with 1 mL of Drabkin's reagent and allowed to stand at room temperature for a minimum of 15 minutes. Following the centrifugation phase, the supernatant of both test articles visually appeared clear and were particulate free. The PBS blank and the negative control supernatant visually appeared clear and were particulate free. The supernatant of the positive control visually appeared red and were particulate free. The test articles and controls were read at 540 nm in a spectrophotometer.
The hemolytic index (percent hemolysis) was interpreted using the following equation:
[formula] Where: Hemoglobin Released (mg/mL)=(Optical Density×X Coefficient+Constant)×16 Hemoglobin Present (mg/ml)=Diluted Blood 10±1 mg/mL
The corrected hemolytic index was calculated by subtracting the hemolytic index of the PBS blank solution from the hemolytic index of the test article and controls. […]

[5] = tested on: various bacterial cell cultures; test: Antimicrobial activity of polyamines in hydrogel on agar lawns; format: cell-based; conditions: 0.5% CZ compound in 0.5% sodium hyaluronate gel, 500 uL on TSA lawn, 37 C for 24 hours
Method: A 0.5 McFarland standard of each bacteria was made, then individual lawns of bacteria spread onto the surface of tryptic soy agar (TSA). 500 uL of the suspended gel were placed on the center of each lawn. Plates were incubated at 37 C for 24 hours, then imaged. Images of the resulting gels are shown in FIGS. 30A to 30I show the effects of the polyamines CZ-86, CZ-100, and CZ-110 on various bacterial cell cultures.
The hydrogel that was used for those images is a LifeCore gel with 1% sodium hyaluronate (1% Sodium Hyaluronate Solution Part #82). The CZ compound was suspended in water at 1% (w/w) concentration and combined with the LifeCore gel 1:1 for a final product that contained 0.5% sodium hyaluronate and 0.5% CZ compound.

[6] = tested on: A. baumannii; test: MIC, 96-well CAMHB, 10^5 to 10^2 CFU/mL in 24 hours; format: cell-based, Acinetobacter baumannii; conditions: Acinetobacter baumannii; Table 5; read-out: MIC (A. bumannii)
Method: To determine the MIC of polyamine compounds, the protocol described herein was used.
In brief, a 0.5 McFarland of each bacterial isolate was made. A 0.5 McFarland is a measure of turbidity in a liquid sample that contains approximately 1×10^∧8 CFU/mL. The 0.5 McFarland standard was diluted in cation adjusted Mueller Hinton Broth (CAMHB), and 50 μL of broth were added to a well of a 96-well plate. In addition, 50 μL of CAMHB that contained a desired concentration of antimicrobial were also added to the well for a final volume of 100 μL and a final concentration of approximately 5×10^4 CFU/well (which equated to approximately 5×10^5 CFU/mL). Each well contained a desired amount of polyamine compound in order to experimentally determine the MIC. Each 96-well plate was incubated at 37° C. for 24 hours. The contents of each well were plated on tryptic soy agar (TSA). TSA plates were incubated for 37° C. for 24 hours after which the number of CFU were counted and used to calculate the CFU/mL that remained after exposure to varying concentrations of compound. This procedure was repeated n=8 times for each concentration of antimicrobial.
A 0.5 McFarland of A. baumannii is made. A 0.5 McFarland is a measure of turbidity in a liquid sample that contains approximately 7.5×10^7 CFU/mL. The 0.5 McFarland standard is diluted in CAMHB and 50 μL of broth is added to a well of a 96-well plate. In addition, 50 μL of CAMHB that contains a desired concentration of antimicrobial is added to the well for a final volume of 100 μL and a final concentration of approximately 5×10^4 CFU/well (which equates to approximately 5×10^5 CFU/mL). Each well contains a desired amount of CZ compound in order to experimentally determine the MIC. Each 96-well plate is incubated at 37° C. for 24 hours. The contents of each well is plated on tryptic soy agar (TSA). TSA plates is incubated at 37° C. for 24 hours after which the number of CFUs is counted and used to calculate the CFU/mL that remain after exposure to varying concentrations of compound. This procedure is repeated n=8 times for each concentration of antimicrobial. […]

[7] = tested on: L-929 cells (ATCC CCL-1); test: Minimal Essential Media (MEM) Elution cytotoxicity test; format: cell-based; conditions: Table 9A
Procedure, shortened: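 L-929 cells (ATCC CCL-1) were seeded in multiwell plates and grown to roughly 80% confluence. Test article dilutions (1:2, 1:4, 1:8, 1:16) and control extracts were applied in triplicate and incubated 48±3 hours at 37±1° C. in 5±1% CO2. Wells were scored microscopically for morphological cytotoxicity on a 0–4 scale and averaged; Pass required grade not greater than 2 per USP <87>.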

[8] = tested on: biofilms of MRSA; conditions: understanding of the inventors; no own test described; cited from earlier work
[9] = Table 5, read-out: MIC (P. aeruginosa)

MIC ([1]; Table 5): > 100 µM | MIC [2, 9]: > 100 µM | MIC [3]: > 1200 µg/mL
SMILES: NCCCNCc1ccccc1 [CZ-4, N^1-benzylpropane-1,3-diamine]

MIC ([1]; Table 5): > 100 µM | MIC [2, 9]: 50 to 100 µM (≈ 12.5 to 25 µg/mL) | MIC [3]: 300 µg/mL (≈ 1200 µM)
SMILES: NCCCNCc1cccc(CNCCCN)c1 [CZ-12]

SMILES: CCC(CC)COc1cc(CNCCCNCCCN)cc(CNCCCNCCCN)c1 [CZ-90, N^1,N^1′-((5-(2-ethylbutoxy)-1,3-phenylene)bis(methylene))bis(N^3-(3-aminopropyl)propane-1,3-diamine), hydrochloride salt]
MIC [1]: < 50 µM | MIC ([2]; read-out: MIC (P. aeruginosa), Table 5): < 50 µM | Average Hemolytic Index (% Hemolysis) [4]: 0.76 % Hemolysis | Hemolytic Grade [4]: non-hemolytic | difference between the hemolytic indexes of test article and negative control [4]: 0.00% | Average Optical Density ([4]; 540 nm): 0.003 | Optical Density ([4]; 540 nm, three tubes, 37 ± 2° C., 3 hours): 0.003 | Corrected Hemolytic Index (% Hemolysis) ([4]; hemolytic index of the PBS blank subtracted): 0.00 % Hemolysis | Hemolytic Index ([4]; three tubes): 0.764

SMILES: CCCCCCCCNCCCNCCCNCc1cccc(CNCCCNCCCNCCCCCCCC)c1 [CZ-100, N^1,N^1′-(1,3-phenylenebis(methylene))bis(N^3-(3-(octylamino)propyl)propane-1,3-diamine)]
MIC ([1]; Table 5): < 50 µM | MIC [2, 9]: < 50 µM | zones of inhibition in bacterial lawns [5]: created zones of inhibition | MIC [6]: < 50 µM | Results Pass/Fail ([7]; 3.125 μg/mL): Pass (receives a passing score (Pass) if the reactivity grade is not greater than grade 2 or a mild reactivity) | Results Pass/Fail ([7]; 6.25 μg/mL): Pass (receives a passing score (Pass) if the reactivity grade is not greater than grade 2 or a mild reactivity) | Results Pass/Fail ([7]; 12.5 μg/mL): Pass (receives a passing score (Pass) if the reactivity grade is not greater than grade 2 or a mild reactivity) | Results Pass/Fail ([7]; 25 μg/mL): Fail (a numerical grade greater than 2 is considered a cytotoxic effect, or a failing score (Fail)) | Results Pass/Fail ([7]; 1.563 (unit not given)): Pass (receives a passing score (Pass) if the reactivity grade is not greater than grade 2 or a mild reactivity)

SMILES: CCCCCCCCNCCCNCCCNCc1cc(CNCCCNCCCNCCCCCCCC)cc(OCCCNCC(C)C)c1 [CZ-110, N^1,N^1′-((5-(3-(isobutylamino)propoxy)-1,3-phenylene)bis(methylene))bis(N^3-(3-(octylamino)propyl)propane-1,3-diamine)]
MIC ([1]; Table 5): < 50 µM | MIC [2, 9]: < 50 µM | zones of inhibition in bacterial lawns [5]: created zones of inhibition | MIC [6]: < 50 µM

SMILES: CC(C)(C)CC(C)(C)c1ccc(OCCOCC[N+](C)(C)Cc2ccccc2)cc1 [benzethonium chloride]
biofilm dispersal effect (comparison) [8]: not seen

SMILES: N=C(NCCCCCCNC(=N)NC(=N)Nc1ccc(Cl)cc1)NC(=N)Nc1ccc(Cl)cc1.O=C(O)[C@H](O)[C@@H](O)[C@H](O)[C@H](O)CO.O=C(O)[C@H](O)[C@@H](O)[C@H](O)[C@H](O)CO [chlorhexidine gluconate, reference compound]
biofilm dispersal effect (comparison) [8]: not seen | Results Pass/Fail ([7]; 3.125 μg/mL): Pass (receives a passing score (Pass) if the reactivity grade is not greater than grade 2 or a mild reactivity) | Results Pass/Fail ([7]; 6.25 μg/mL): Pass (receives a passing score (Pass) if the reactivity grade is not greater than grade 2 or a mild reactivity) | Results Pass/Fail ([7]; 12.5 μg/mL): Pass (receives a passing score (Pass) if the reactivity grade is not greater than grade 2 or a mild reactivity) | Results Pass/Fail ([7]; 25 μg/mL): Fail (a numerical grade greater than 2 is considered a cytotoxic effect, or a failing score (Fail)) | Results Pass/Fail ([7]; 1.563 (unit not given)): Pass (receives a passing score (Pass) if the reactivity grade is not greater than grade 2 or a mild reactivity)
